Patent US20120095325A1, “TREATMENT OF BRAIN DISEASES VIA ULTRASOUND/MAGNETIC TARGETING DELIVERY AND TRACING OF THERAPEUTIC AGENTS” (Chang Gung Medical Foundation, Linkou Branch, priority 2010, published 2012)
≈ marks a conversion by molar mass, not a printed value.

Experiments:
[1] = cited from earlier work
breast carcinoma = settings: cited from earlier work
Rat glioma C6 cells = experiment: Cell toxicity in vitro, XTT assay; format: cell-based; settings: 12 hrs, no magnetic field
Procedure: Rat glioma C6 cells were cultured in the culture medium RPMI 1640 supplemented with 2.2 mg/mL sodium carbonate, 10% FBS, 50 μg/mL gentamycin, 50 μg/mL penicillin and 50 μg/mL streptomycin at 37° C. and 5% CO2. Approximately 10,000 cells were placed in each well of a 96-well culture plate and incubated in a humidified chamber at 37° C. and 5% CO2 for 24 hrs.
Before counting viable cells by the XTT assay, the culture medium in each well was removed and cells were incubated in 120 μL of XTT for 3 hrs. After the reaction, a 100 μL aliquot of the solution in each well was sampled and transferred to a 96-well counting dish, followed by measuring absorbance at OD490 using an ELISA reader, so as to determine cell viability (%). The experimental results were expressed as mean±SD. The in vitro cytotoxicities of MNPs, epirubicin and epirubicin-MNPs on C6 cells were evaluated by the IC50 values thereof.

in vivo = settings: Sprague-Dawley, rat
Procedure: All animal experiments were approved by the Institutional Animal Care and Use Committee of Chang Gung University and adhered to their experimental animal care guidelines. […] Brain tumors were induced in another 14 rats by injection of cultured C6 tumor cells. Briefly, C6 tumor cells (10^6 cells/plate) were injected into the brains using a microdialysis pump system (CMA Microdialysis). Animals underwent FUS treatment on Day 10 after tumor implantation to determine if the method could open an area of the BBB sufficiently large to cover the area of the induced tumors.
Before the FUS treatment, the rats were anesthetized by i.p. injection of chlorohydrate (30 mg/kg). The top of the cranium of each rat was shaved with clippers, and a PE-50 catheter was inserted into the jugular vein. The animal's head was attached tightly to a 4-cm^2 thin-film window directly under an acrylic water tank. The animal's cranial opening was filled with degassed water to serve as an acoustic coupling device. SonoVue® SF6-coated US microbubbles (mean diameter 2-5 μm, 2.5 μg/kg; Bracco) were administered i.v. before sonication (with a time lapse<10 s). Each bolus injection contained 0.1 mL of microbubble/kg of body weight mixed with 0.2 mL of saline solution. A heparin flush (0.2 mL) was subsequently performed.
Animal experiments were monitored using the 3-T magnetic resonance imager to localize the geometric center of the FUS and the energy exposure site. US was delivered to the brain transcranially using a MR-compatible spherical transducer (diameter, 60 mm; radius of curvature, 80 mm; frequency, 400 kHz, electric-to-acoustic efficiency, 70%; Imasonics) with the center of the focal zone positioned at a penetration depth of 2 to 3 mm in each hemisphere. Single burst-mode US was delivered, with a burst length of 10 ms, a pulse-repetition frequency of 1 Hz, and total sonication duration of 120 s. For optimization studies, the input electric power used was 2 W, corresponding to an acoustic negative peak (i/e., spatial-peak, temporal-peak) pressure amplitude measured through the animal cranium equal to 0.62 MPa.
In the MT treatment, a permanent magnet having a peak magnetic flux density of 0.18 T, 0.4 T or 0.55 T was used to produce an inhomogeneous magnetic field. To concentrate the magnetic flux density onto the disrupted region of the BBB, the magnet was tilted at an angle relative to the animal's brain, attached to the animal's scalp, and supported and tightened using a custom-made plastic belt for the desired duration (3-24 hrs). MRI images were acquired immediately after removal of the magnet.
Animals' brains were monitored by MRI after the FUS treatment and/or the MT treatment. All MRI images were acquired on a 3-T scanner using the standard wrist coil with an inner diameter of 13 cm. The animals were anesthetized with 2% isoflurane throughout the MRI imaging process, placed in an acrylic holder, and positioned in the center of the magnet. An i.v. bolus (0.1 mmol/kg) of gadopentetate dimeglumine MRI contrast agent (Magnevist; Berlex) was administered before scanning. To identify the region of the BBB disrupted by the FUS treatment, contrast-enhanced T1 turbo spin-echo sequences were acquired using the following parameters: repetition/echo time, 780 ms/15 ms; slice thickness, 1.4 mm; matrix size, 128×256; field of view, 39×60 mm (resolution, 0.3×0.3 mm). T2-weighted images were obtained to produce R2 maps both in gel phantom or in vivo experiments by using a double-TE spinecho sequence and acquired three times, using the following parameters: repetition time, 3,860 ms, echo time, 8/14, 28/57, and 85/228 ms; matrix, 128×256; field of view, 38×76 mm (resolution, 0.3×0.3 mm); and slice thickness, 1.4 mm.

concentration at 6 hr (in vivo) | epirubicin concentration measured in tissues per iron (range) (in vivo) | epirubicin delivered, assessed by ICP-OES/HPLC (in vivo) | epirubicin delivered, assessed by MRI (in vivo) | mean immobilization ratio in tissues (in vivo) | SMILES | doxorubicin delivered into normal brains by FUS ([1]; FUS treatment used safely) | doxorubicin delivery by FUS ([1]; increased delivery, at the expense of increased damage to brain tissue) | therapeutic range reported in vivo (breast carcinoma; human, in vivo) | clinical response rate (breast carcinoma; patients with breast carcinoma) | IC50 (Rat glioma C6 cells) | epirubicin accumulated in tissue (in vivo)
 |  |  |  |  | COc1cccc2c1C(=O)c1c(O)c3c(c(O)c1C2=O)C[C@@](O)(C(=O)CO)C[C@@H]3O[C@H]1C[C@H](N)[C@H](O)[C@H](C)O1 [doxorubicin] | 886±327 ng doxorubicin per gram of tissue | 5,336±659 ng/g | 819±482 ng/g tumor | 39% |  | 
21700 ng/g | 383-415 μg epirubicin/mg iron ion | 1,162±1,028 ng/g | 1,197±226 ng/g | 395.6±17.3 μg epirubicin/mg iron ion | COc1cccc2c1C(=O)c1c(O)c3c(c(O)c1C2=O)C[C@@](O)(C(=O)CO)C[C@@H]3O[C@H]1C[C@H](N)[C@@H](O)[C@H](C)O1 [epirubicin] |  |  |  |  | 6.7 µg/mL (≈ 12.3 µM) | 1,336±1,182 ng epirubicin per gram of tissue
